This note sets out measurements from US7541368B2, “Pyrazoles as inhibitors of tumor necrosis factor” (Aventis Pharmaceuticals Inc., priority 2003, dated 2009).

Each structure is given as a SMILES string.

Assay [1] has as its target T1, Inactive N-terminal His6 tagged murine P38 (Mus musculus, UniProt P47811).
T1 construct: His6 (N); made in house
Put plainly: p38 cascade assay (HTRF; inactive p38 activated by MKK-6, ATF-2 phosphorylation). The note with it: inactive p38 preincubated with compound, then MKK-6, ATF-2, ATP; read-out: 50% inhibition in the p38 cascade assay at concentrations within the range. It counts as biochemical. As to the method:
The homogeneous time resolved fluorescence method (HTRF) assay measured the phosphorylation of human activating transcription factor (ATF)-2 protein by P38 following activation by MKK-6 and was run in A384 well plate format. […] MBP-tagged mouse MKK-6 (final concentration 50 nM), GST-tagged ATF-2 (fmal concentration 200 nM) and ATP (final concentration 50 μM) were then added and the incubation continued for 90 min. p38, MKK-6 and ATF-2 were prepared in the Protein Production Group, Aventis Pharmaceuticals. XL665 labeled anti-GST antibody (Cis Bio International) and cryptate labeled anti-pbospho-ATF2 antibody (Cis Bio International) were then added to generate the specific signal proportional to the phosphorylation of the substrate. The close proximity of XL665 labeled anti-GST antibody/phosphorylated GST-ATF2 complex and the cryptate labeled anti-phospho-ATF2 antibody results in a fluorescence transfer from cryptate to XL665. The resulting fluorescence signal was than read on a LJL Acquest set at multi-method mode using a fluorescence filter set (E=360 nm, Em=615/665 nm) with UV dichroic mirror (Integration time: 300000 μs). The results are reported as IC50 values. Compounds were tested over the concentration range of 3×10^−10M to 3×10^−5M.

The test system of assay [2] is TNF-alpha release in THP-1 cells. Put plainly: LPS-induced TNF-alpha release in THP-1 cells. The class given is cell-based. The following applies: Homo sapiens, THP-1, LPS-stimulated THP-1 cells; read-out: 50% inhibition in the LPS-induced TNF-alpha release in THP-1 cells assay at concentrations within the range. The method in brief:
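Undifferentiated THP-1 monocytes (1×10^6 cells/ml, 1% FCS) preincubated 1 h at 37° C with compound (1×10^−9 to 1×10^−6 M, 0.3% DMSO), then stimulated with LPS (20 μg/ml) for 18 h. Supernatant TNF-alpha measured by sandwich ELISA (TMB read-out), interpolated from a log/log standard curve (0.125-16 ng/ml).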

T1 sequence (P47811 whole entry): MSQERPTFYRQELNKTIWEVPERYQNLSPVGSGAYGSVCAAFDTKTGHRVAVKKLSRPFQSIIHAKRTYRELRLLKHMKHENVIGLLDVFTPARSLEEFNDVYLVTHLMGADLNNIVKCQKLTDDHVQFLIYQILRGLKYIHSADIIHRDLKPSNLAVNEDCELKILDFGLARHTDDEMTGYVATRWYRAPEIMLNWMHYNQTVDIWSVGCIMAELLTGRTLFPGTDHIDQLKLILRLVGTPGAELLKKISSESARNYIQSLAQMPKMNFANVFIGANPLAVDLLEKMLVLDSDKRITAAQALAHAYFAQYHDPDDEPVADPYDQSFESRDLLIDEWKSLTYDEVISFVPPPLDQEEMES

For the compound `Cc1ccc(-n2nc(C(C)(C)C)cc2NC(=O)Nc2ccc(CC3CCN(C(=O)c4ccc5[nH]ccc5c4)CC3)cc2)cc1` [Compound A361, 1-(5-tert-Butyl-2-p-tolyl-2H-pyrazol-3-yl)-3-{4-[1-(1H-indole-5-carbonyl)-piperidin-4-ylmethyl]-phenyl}-urea], the IC50 in assay [1] lay within 10 to 100 nM; in assay [2], 10 to 500 nM.
On to `Cc1ccc(-n2nc(C(C)(C)C)cc2NC(=O)Nc2cccc(CC3CCN(C(=O)c4cccnc4Cl)CC3)c2)cc1` [Compound A42, 1-(5-tert-Butyl-2-p-tolyl-2H-pyrazol-3-yl)-3-{3-[1-(2-chloro-pyridine-3-carbonyl)-piperidin-4-ylmethyl]-phenyl}-urea], for which the IC50 in assay [1] lay within 10 to 100 nM; in assay [2], 10 to 500 nM.
As to `Cc1ccc(-n2nc(C(C)(C)C)cc2NC(=O)Nc2ccc(CC3CCN(C(=O)c4oc5ccccc5c4C)CC3)cc2)cc1` [Compound A290, 1-(5-tert-Butyl-2-p-tolyl-2H-pyrazol-3-yl)-3-{4-[1-(3-methyl-benzofuran-2-carbonyl)-piperidin-4-ylmethyl]-phenyl}-urea], the IC50 in assay [1] lay in the range of 10 to 100 nM; in assay [2], 10 to 500 nM.
In the case of `Cc1ccc(-n2nc(C(C)(C)C)cc2NC(=O)Nc2ccc(CC3CCN(C(=O)c4ccc5ncccc5c4)CC3)cc2)cc1` [Compound A386, 1-(5-tert-Butyl-2-p-tolyl-2H-pyrazol-3-yl)-3-{4-[1-(quinoline-6-carbonyl)-piperidin-4-ylmethyl]-phenyl}-urea], the IC50 lay within 10 to 100 nM in assay [1] and 10 to 500 nM in assay [2].
Regarding `Cc1ccc(-n2nc(C(C)(C)C)cc2NC(=O)Nc2cccc(CC3CCN(C(=O)c4sc(C)nc4C)CC3)c2)cc1` [Compound A28, 1-(5-tert-Butyl-2-p-tolyl-2H-pyrazol-3-yl)-3-{3-[1-(2,4-dimethyl-thiazole-5-carbonyl)-piperidin-4-ylmethyl]-phenyl}-urea], the IC50 in assay [1] is 10 to 100 nM; in assay [2], 10 to 500 nM.
Turning to `CC(=O)NCC(=O)N1CCC(Cc2cccc(NC(=O)Nc3cc(C(C)(C)C)nn3-c3ccc(C)cc3)c2)CC1` [Compound A179, N-[2-(4-{3-[3-(5-tert-Butyl-2-p-tolyl-2H-pyrazol-3-yl)-ureido]-benzyl}-piperidin-1-yl)-2-oxo-ethyl]-acetamide], the figures for the IC50 in assay [1] and in assay [2] were 10 to 100 nM and 10 to 500 nM, respectively.
Take `Cc1ccc(-n2nc(C(C)(C)C)cc2NC(=O)Nc2ccc(CC3CCN(C(=O)c4cccc(C)n4)CC3)cc2)cc1` [Compound A334, 1-(5-tert-Butyl-2-p-tolyl-2H-pyrazol-3-yl)-3-{4-[1-(6-methyl-pyridine-2-carbonyl)-piperidin-4-ylmethyl]-phenyl}-urea]: the IC50 in assay [1] was 10 to 100 nM; in assay [2], 10 to 500 nM.
With `COc1cscc1C(=O)N1CCC(Cc2cccc(NC(=O)Nc3cc(C(C)(C)C)nn3-c3ccc(C)cc3)c2)CC1` [Compound A123, 1-(5-tert-Butyl-2-p-tolyl-2H-pyrazol-3-yl)-3-{3-[1-(4-methoxy-thiophene-3-carbonyl)-piperidin-4-ylmethyl]-phenyl}-urea], the IC50 lay within 10 to 100 nM in assay [1] and 10 to 500 nM in assay [2].
For `Cc1ccc(-n2nc(C(C)(C)C)cc2NC(=O)Nc2ccc(CC3CCN(C(=O)c4occc4C)CC3)cc2)cc1` [Compound A289, 1-(5-tert-Butyl-2-p-tolyl-2H-pyrazol-3-yl)-3-{4-[1-(3-methyl-furan-2-carbonyl)-piperidin-4-ylmethyl]-phenyl}-urea], the IC50 in assay [1] was in the range of 10 to 100 nM; in assay [2], 10 to 500 nM.
Take `Cc1ccc(-n2nc(C(C)(C)C)cc2NC(=O)Nc2ccc(CC3CCN(C(=O)c4cnc(O)c(Cl)c4)CC3)cc2)cc1` [Compound A326, 1-(5-tert-Butyl-2-p-tolyl-2H-pyrazol-3-yl)-3-{4-[1-(5-chloro-6-hydroxy-pyridine-3-carbonyl)-piperidin-4-ylmethyl]-phenyl}-urea]: the IC50 lay within 10 to 100 nM in assay [1] and 10 to 500 nM in assay [2].
As to `Cc1ccc(-n2nc(C(C)(C)C)cc2NC(=O)Nc2cccc(CC3CCN(C(=O)c4csc(-c5ccncc5)n4)CC3)c2)cc1` [Compound A34, 1-(5-tert-Butyl-2-p-tolyl-2H-pyrazol-3-yl)-3-{3-[1-(2-pyridin-4-yl-thiazole-4-carbonyl)-piperidin-4-ylmethyl]-phenyl}-urea], the IC50 in assay [1] fell in the range of 10 to 100 nM; in assay [2] it was 10 to 500 nM.
With `Cc1ccc(-n2nc(C(C)(C)C)cc2NC(=O)Nc2cccc(CC3CCN(C(=O)CNC(=O)c4ccccc4)CC3)c2)cc1` [Compound A163, N-[2-(4-{3-[3-(5-tert-butyl-2-p-tolyl-2H-pyrazol-3-yl)-ureido]-benzyl}-piperidin-1-yl)-2-oxo-ethyl]-benzamide], the IC50 in assay [1] is 10 to 100 nM; in assay [2], 10 to 500 nM.
For `CC(=O)NCC(=O)N1CCC(Cc2ccc(NC(=O)Nc3cc(C(C)(C)C)nn3-c3ccc(C)cc3)cc2)CC1` [Compound A375, N-[2-(4-{4-[3-(5-tert-Butyl-2-p-tolyl-2H-pyrazol-3-yl)-ureido]-benzyl}-piperidin-1-yl)-2-oxo-ethyl]-acetamide], the IC50 in assay [1] is 10 to 100 nM; in assay [2] it was 10 to 500 nM.
Consider `COc1ccc(OC)c(C(=O)N2CCC(Cc3ccc(NC(=O)Nc4cc(C(C)(C)C)nn4-c4ccc(C)cc4)cc3)CC2)c1` [Compound A220, 1-(5-tert-Butyl-2-p-tolyl-2H-pyrazol-3-yl)-3-{4-[1-(2,5-dimethoxy-benzoyl)-piperidin-4-ylmethyl]-phenyl}-urea], for which the IC50 in assay [1] was in the range of 10 to 100 nM; in assay [2], 10 to 500 nM.
Turning to `Cc1ccc(-n2nc(C(C)(C)C)cc2NC(=O)Nc2ccc(CC3CCN(C(=O)OCC(C)C)CC3)cc2)cc1` [Compound A1625, 4-{4-[3-(5-tert-Butyl-2-p-tolyl-2H-pyrazol-3-yl)-ureido]-benzyl}-piperidine-1-carboxylic acid isobutyl ester], the figures for the IC50 in assay [1] and in assay [2] were 10 to 100 nM and 10 to 500 nM, respectively.
For `Cc1ccc(-n2nc(C(C)(C)C)cc2NC(=O)Nc2cccc(CC3CCN(C(=O)c4cccnc4C)CC3)c2)cc1` [Compound A59, 1-(5-tert-Butyl-2-p-tolyl-2H-pyrazol-3-yl)-3-{3-[1-(2-methyl-pyridine-3-carbonyl)-piperidin-4-ylmethyl]-phenyl}-urea], in that order: 10 to 100 nM and 10 to 500 nM.
Take `CC(=O)OCc1ccc(C(=O)N2CCC(Cc3ccc(NC(=O)Nc4cc(C(C)(C)C)nn4-c4ccc(C)cc4)cc3)CC2)cc1` [Compound A336, Acetic acid 4-(4-{4-[3-(5-tert-butyl-2-p-tolyl-2H-pyrazol-3-yl)-ureido]-benzyl}-piperidin-1-carbonyl)-benzyl ester]: the IC50 lay in the range of 10 to 100 nM in assay [1] and 10 to 500 nM in assay [2].
Consider `Cc1ccc(-n2nc(C(C)(C)C)cc2NC(=O)Nc2cccc(CC3CCN(C(=O)Cc4ccccc4F)CC3)c2)cc1` [Compound A43, 1-(5-tert-Butyl-2-p-tolyl-2H-pyrazol-3-yl)-3-(3-{1-[2-(2-fluoro-phenyl)-acetyl]-piperidin-4-ylmethyl}-phenyl)-urea], for which the results for the IC50 in assay [1] and in assay [2] were 10 to 100 nM and 10 to 500 nM, respectively.
As to `Cc1ccc(-n2nc(C(C)(C)C)cc2NC(=O)Nc2ccc(CC3CCN(C(=O)c4cnccn4)CC3)cc2)cc1` [Compound A256, 1-(5-tert-Butyl-2-p-tolyl-2H-pyrazol-3-yl)-3-{4-[1-(pyrazine-2-carbonyl)-piperidin-4-ylmethyl]-phenyl}-urea], the IC50 in assay [1] lay within 10 to 100 nM; in assay [2], 10 to 500 nM.
For `Cc1ccc(-n2nc(C(C)(C)C)cc2NC(=O)Nc2ccc(CC3CCN(C(=O)CCOc4ccccc4)CC3)cc2)cc1` [Compound A292, 1-(5-tert-Butyl-2-p-tolyl-2H-pyrazol-3-yl)-3-{4-[1-(3-phenoxy-propionyl)-piperidin-4-ylmethyl]-phenyl}-urea], the IC50 in assay [1] lay within 10 to 100 nM; in assay [2], 10 to 500 nM.
With `Cc1ccc(-n2nc(C(C)(C)C)cc2NC(=O)Nc2cccc(CC3CCN(C(=O)c4csc(-c5cccnc5)n4)CC3)c2)cc1` [Compound A32, 1-(5-tert-Butyl-2-p-tolyl-2H-pyrazol-3-yl)-3-{3-[1-(2-pyridin-3-yl-thiazole-4-carbonyl)-piperidin-4-ylmethyl]-phenyl}-urea], the IC50 in assay [1] lay within 10 to 100 nM; in assay [2] it was 10 to 500 nM.
On to `COc1ccc(C(=O)N2CCC(Cc3cccc(NC(=O)Nc4cc(C(C)(C)C)nn4-c4ccc(C)cc4)c3)CC2)c(C)c1` [Compound A120, 1-(5-tert-Butyl-2-p-tolyl-2H-pyrazol-3-yl)-3-{3-[1-(4-methoxy-2-methyl-benzoyl)-piperidin-4-ylmethyl]-phenyl}-urea], for which the IC50 in assay [1] was in the range of 10 to 100 nM; in assay [2] it was 10 to 500 nM.
The matching figures for `Cc1ccc(-n2nc(C(C)(C)C)cc2NC(=O)Nc2cccc(CC3CCN(C(=O)C4(C)CC4)CC3)c2)cc1` [Compound A16, 1-(5-tert-Butyl-2-p-tolyl-2H-pyrazol-3-yl)-3-{3-[1-(1-methyl-cyclopropanecarbonyl)-piperidin-4-ylmethyl]-phenyl}-urea]: 10 to 100 nM and 10 to 500 nM.
